Test results reported in US4820723A, “Disubstituted tetrazole leukotriene antagonists and methods for their use thereas” (Eli Lilly and Company, priority 1987, dated 1989).

Tests used:
[1] = tested on: pressor response to leukotriene D4; experiment: decrease of LTD4 pressor response in pithed rats; type: in vivo, Adult male Sprague-Dawley rats; conditions: Rattus norvegicus, iv, 0.25 h, 15 minutes prior to leukotriene D4 challenge (10 μg/kg, i.v.); dose to decrease pressor response by 50%
Description: A further measure of the final product's activity is their ability to decrease the pressor response in pithed rats that are challenged by LTD4. This activity is measured by the following standard procedure
Adult male Sprague-Dawley rats, weighting approximately 300-500 grams, are anesthetized with pentobarbital sodium (60 mg/kg, i.p.). The trachea is cannulated and the rats are ventilated with room air delivered from a rodent respirator (Harvard, model 680; tidal volume of 1 ml/100 grams body weight, 60 cycles/minute). Rats are pithed by passing a steel rod through the right orbit and down the entire length of the spinal column. The rod is left in position for the duration of the experiment. Pulsatile arterial blood pressure is measured from a cannulated carotid artery using a Stathamtransducer (P231D). Mean arterial blood pressure is calculated as diastolic pressure plus 1/3 pulse pressure. Drug solutions are administered i.v. through a catheter placed in a jugular vein. Arterial blood pressure is recorded on a multichannel oscillograph (Beckman, model R511A).
Groups of pithed rats, usually 4-6/group, are pretreated i.v. with a dose of test compound or vehicle (control experiments) 15 minutes prior to leukotriene D4 challenge (10 μg/kg, i.v.). Usually 3-4 doses of the test compound are evaluated in a given study. Blood pressure responses to leukotriene D4 in control and drug-treated pithed rats are then compared and an ED50 dose of antagonist is estimated. ED50 (95% confidence interval) is the calculated dose of antagonist (mg/kg, i.v.) required to decrease the pressor response to leukotriene D4 by 50%.
The ED50 values of selected final products of Formula I are set forth below in Table 2.

[2] = target: T1, LTD4 in guinea pig ileum and trachea (Cavia porcellus, UniProt Q2NNR5); experiment: cumulative concentration-response curves to LTD4 in guinea pig ileum and trachea (KB by method of Furchgott); conditions: negative log of the dissociation KB, 30 minute incubation, LTD4 agonist
T1 construct: from tissue; host or cells: isolated ileum and trachea of guinea pigs (male Hartley stated for the ileum test)
T1 sequence (Q2NNR5 1-340): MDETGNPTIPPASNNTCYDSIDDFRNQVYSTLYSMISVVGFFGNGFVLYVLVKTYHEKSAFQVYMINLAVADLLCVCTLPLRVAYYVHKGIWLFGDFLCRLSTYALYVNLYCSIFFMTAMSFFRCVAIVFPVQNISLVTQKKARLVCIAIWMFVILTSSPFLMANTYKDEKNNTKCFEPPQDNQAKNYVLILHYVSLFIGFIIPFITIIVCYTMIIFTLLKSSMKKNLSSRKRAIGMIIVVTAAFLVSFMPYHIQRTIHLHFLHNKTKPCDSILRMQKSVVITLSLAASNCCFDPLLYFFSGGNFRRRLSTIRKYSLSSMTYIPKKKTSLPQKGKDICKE
Description: (§1) Male, Hartley guinea pigs weighing 200-450 grams were killed by decapitation. A section of terminal ileum was removed, the lumen cleaned, and the tissue divided into 2.5 cm segments. The ilea were mounted in 10 ml tissue baths containing Krebs-bicarbonate solution of the following composition in mmoles/liter: KCl, 4.6; CaCl2 ·2H2 O, 1.2; KH2 PO4, 1.2; MgSO4 ·7H2 O, 1.2; NaCl, 118.2; NaHCO3, 24.8; and dextrose, 10.0. The bath fluid was maintained at 37° C. and aerated with 95 percent oxygen and 5 percent CO2. In addition, the buffer contained 1×10^-6 M atropine to reduce ileal spontaneous activity. Isometric measurements were made with a Grass FT03C force-displacement transducer and recorded on a Grass polygraph as change in grams of force. A passive force of 0.5 g. was applied to the tissues. After an appropriate equilibration period, single submaximal control responses to pure LTD4 were obtained. Following a five minute exposure of the ileum to an experimental drug, the control concentration of LTD4 was added to the tissue bath. The response of the ileum to LTD4 in the presence of the drug was compared to the response in the absence of the drug. Various degrees of LTD4 antagonism were obtained using 2-4 different concentrations of an experimental compound on a single ileum.
For some of the drugs in this series a more detailed analysis of LTD4 antagonism was made. In these experiments, cumulative concentration-response curves were obtained to LTD4 in guinea pig ileum and trachea. This was followed by a 30 minute incubation with various concentrations of the experimental drug. The concentration response curve to LTD4 was then repeated in the presence of an antagonist. Only one concentration of antagonist was used on a single tissue. KB values were calculated by the method of Furchgott [Ann. N.Y. Acad. Sci., 139, 553 (1967)] using the following equation. [formula]
Dose effect ratio refers to the concentration of agonist required to elicit 50 percent of the maximal response (ED50) in the presence of the antagonist divided by the ED50 in the absence of the antagonist. Calculations were performed with the aid of a computer and a digital plotter. The negative log of the dissociation KB ("pKB ") is given for some of the compounds in the table below.
(§2) Percent inhibition of LTD4 evoked ileal contractions

[3] = tested on: LTD4 evoked ileal contractions; experiment: LTD4 antagonism: inhibition of LTD4 evoked contractions of isolated guinea pig ileum; design: species or system Male, Hartley guinea pigs; conditions: 5 min exposure to drug, 50% inhibition of LTD4 responses, 37° C.
Description: as §1, §2

SMILES	pKB [2]	-log IC50 [3]	ED50 [1] [mg/kg]
CCCc1c(OCCCCc2nnn(Cc3ccc(C(=O)O)c(O)c3)n2)ccc(C(C)=O)c1O [Example 55, 5-[4-(4-Acetyl-3-hydroxyl-2-(n-propyl)phenoxy)-butyl]-2H-tetrahydrazole-2-[4-(methylene)salicylic acid]]	6.89	–	22
CCCc1c(OCCCCc2nnn(Cc3ccc(Cc4nn[nH]n4)cc3)n2)ccc(C(C)=O)c1O [Example 54]	7.10	–	22.4
CCCc1c(OCCCCc2nnn(Cc3ccc(C(=O)O)cc3O)n2)ccc(C(C)=O)c1O [Example 57, 5-[4-(4-Acetyl-3-hydroxy-2-(n-propyl)phenoxy)butyl]-2H-tetrazole-2-[4-(methylene)3-hydroxybenzoic acid]]	7.06	–	19.8
CCCc1c(OCCCCc2nnn(Cc3ccc(C(=O)O)cc3)n2)ccc(C(C)=O)c1O [Example 31, 5-[4-(4-Acetyl-3-hydroxy-2-propylphenoxy)butyl]-2H-tetrazole-2-(α-methylene-p-benzoic acid)]	7.190	7.75	6.5

More lines, main results first:

pKB [2]	-log IC50 [3]	SMILES	ED50 [1] [mg/kg]
6.40	–	CCCc1c(OCCCCc2nnnn2Cc2ccc(C(=O)O)cc2O)ccc(C(C)=O)c1O [Example 56, 5-[4-(4-Acetyl-3-hydroxy-2-(n-propyl)phenoxy)butyl]-1H-tetrazole-1-[(4-methylene)-3-hydroxybenzoic acid]]	–
7.00	–	CCCc1c(Oc2ccc(-c3nnn(Cc4ccc(C(=O)O)cc4)n3)cc2)ccc(C(C)=O)c1O [Example 58, 5-[Para-(4-Acetyl-3-hydroxy-2-(n-propyl)phenoxy)phenyl]-2H-tetrazole-2-[para(methylene)benzoic acid]]	–
